Data from ChEMBL document CHEMBL1134362, “New 3'-azido-3'-deoxythymidin-5'-yl O-(omega-hydroxyalkyl) carbonate prodrugs: synthesis and anti-HIV evaluation” (J Med Chem, 2001).

How the values were obtained:
[1] = Partition coefficient (logP); format: physicochemical; conditions: octanol/water
[2] = Selectivity index (CC50/EC50).; format: functional
MT4 = test: Cytotoxicity against MT-4 (human leukemia) cells.; format: functional
[3] = tested on: Human immunodeficiency virus 1; test: Inhibition of HIV-1 (BRU) cytopathicity in MT-4 (human leukemia).; format: functional, organism-based
Homo sapiens = organism: Homo sapiens; test: Time required for 50%hydrolysis of prodrug to AZT in normal human serum was determined; format: ADME, organism-based
[4] = tested on: Human immunodeficiency virus 1; test: Inhibition of HIV-1 (IIIB) cytopathicity in human peripheral blood mononuclear cells.; format: functional, organism-based
[5] = (§1) Cytotoxicity against human peripheral blood mononuclear cells.; format: functional
[6] = as §1; format: functional; remark: listed apart in the source
[7] = tested on: Human immunodeficiency virus 1; test: Inhibition of HIV-1 (BaL) cytopathicity in human peripheral blood mononuclear cells.; format: functional, organism-based

Structure (SMILES)	logP ([1]; read-out: logP)	SI [2]	CC50 (MT4) [µM]	EC50 [3] [nM]	T1/2 (Homo sapiens) [min]	logP [1]	EC50 [4] [nM]	CC50 [5] [µM]	CC50 [6] [µM]	EC50 [7] [nM]
Cc1cn(C2CC(N=[N+]=[N-])C(COC(=O)OCCCCCO)O2)c(=O)[nH]c1=O (stereo not given)	-0.45	> 5000	> 50	10	16					
Cc1cn(C2CC(N=[N+]=[N-])C(COC(=O)CCCC(=O)OC(C)(C)C)O2)c(=O)[nH]c1=O (stereo not given)	1.17	> 10000	> 50	5	33					
Cc1cn(C2CC(N=[N+]=[N-])C(COC(=O)OCCCN)O2)c(=O)[nH]c1=O (stereo not given)	-0.93	> 2500	> 50	20	8					
Cc1cn(C2CC(N=[N+]=[N-])C(COC(=O)NCCCN)O2)c(=O)[nH]c1=O (stereo not given)	-1.19	> 5000	> 50	10	> 2880					
Cc1cn(C2CC(N=[N+]=[N-])C(COC(=O)NCCCO)O2)c(=O)[nH]c1=O (stereo not given)	-1.24	> 500	> 50	100	> 2880					
Cc1cn(C2CC(N=[N+]=[N-])C(COC(=O)CCCC(=O)O)O2)c(=O)[nH]c1=O (stereo not given)		> 7140	> 50	7	1800	-0.52				
Cc1cn(C2CC(N=[N+]=[N-])C(COC(=O)OCCCC(=O)O)O2)c(=O)[nH]c1=O (stereo not given)	-0.55	> 10000	> 50	5	780					
Cc1cn(C2CC(N=[N+]=[N-])C(COC(=O)OCCCCCCCCO)O2)c(=O)[nH]c1=O (stereo not given)	1.14	> 20000	> 50	2.5	2					
Cc1cn(C2CC(N=[N+]=[N-])C(COC(=O)CCCO)O2)c(=O)[nH]c1=O (stereo not given)	-0.95									
Cc1cn(C2CC(N=[N+]=[N-])C(COC(=O)OCCCC(=O)OC(C)(C)C)O2)c(=O)[nH]c1=O (stereo not given)	1.14	> 10000	> 50	5	16					
CCCCOC(=O)OCC1OC(n2cc(C)c(=O)[nH]c2=O)CC1N=[N+]=[N-] (stereo not given)	1.02	> 6250	> 50	8	9					
Cc1cn(C2CC(N=[N+]=[N-])C(COC(=O)OCCCCO)O2)c(=O)[nH]c1=O (stereo not given)			> 50	0.5	30	-0.68	0.78	24	29	0.78
Cc1cn(C2CC(N=[N+]=[N-])C(COC(=O)NCCCC(=O)OC(C)(C)C)O2)c(=O)[nH]c1=O (stereo not given)	0.88	> 5000	> 50	10	> 2880					
Cc1cn(C2CC(N=[N+]=[N-])C(COC(=O)OCCCO)O2)c(=O)[nH]c1=O (stereo not given)		> 5000	> 50	10	10	-0.98				
Cc1cn([C@H]2C[C@H](N=[N+]=[N-])[C@@H](CO)O2)c(=O)[nH]c1=O [ZIDOVUDINE]			> 100	25			7.5	11	8	11
Cc1cn(C2CC(N=[N+]=[N-])C(COC(=O)OCCCCCCO)O2)c(=O)[nH]c1=O (stereo not given)	0.08	> 5000	> 50	10	7					
Cc1cn(C2CC(N=[N+]=[N-])C(COC(=O)OCCO)O2)c(=O)[nH]c1=O (stereo not given)		> 5000	> 50	10	< 1	-1.2				
Cc1cn(C2CC(N=[N+]=[N-])C(COC(=O)NCCCC(=O)O)O2)c(=O)[nH]c1=O (stereo not given)	-0.81	> 500	> 50	100	> 2880					
Cc1cn(C2CC(N=[N+]=[N-])C(COC(=O)CCCN)O2)c(=O)[nH]c1=O (stereo not given)	-0.9	> 2500	> 50	20	26					
